Counter-ions that a name gives are not always drawn. Like-named read-outs stand apart in the source and are kept apart here.
Assays:
[1] = solubility of the pharmaceutical agent in water; assay type: physicochemical
Description: As defined herein, the solubility of a pharmaceutical agent is determined by adding the pharmaceutical agent to stirred or agitated de-ionized water maintained in a constant temperature bath at a temperature of 37° C. until no more pharmaceutical agent dissolves. The resulting solution saturated with the pharmaceutical agent is then filtered, typically under pressure through a 0.8-micron Millipore filter, and the concentration of the pharmaceutical agent in the solution is measured by any appropriate analytical method including gravimetric, ultraviolet spectrophometry, chromatography, and the like. The solubility of the pharmaceutical agent is measured at saturated concentration.

[2] = osmotic pressure of the drug; assay type: physicochemical

## CCC(=O)O[C@](Cc1ccccc1)(c1ccccc1)[C@H](C)CN(C)C [propoxyphene hydrochloride]
[1]; hydrochloride
  solubility in water (in words): freely soluble

## CNC(=C[N+](=O)[O-])NCCSCc1ccc(CN(C)C)o1.Cl [Ranitidine HCl, ranitidine hydrochloride]
[2]
  osmotic pressure of the drug: 95 atmospheres

## CN1CCN(CCCN2c3ccccc3Sc3ccc(Cl)cc32)CC1 [prochlorperazine edisilate]
[1]
  solubility in water (aqueous solubility): about 500 mg per milliliter

## CN1CCN(CCCN2c3ccccc3Sc3ccc(Cl)cc32)CC1 [prochlorperazine base]
[1]
  solubility in water (aqueous solubility): 0.1 to 1 mg per milliliter

## CCC(=O)O[C@](Cc1ccccc1)(c1ccccc1)[C@H](C)CN(C)C [propoxyphene base]
[1]
  solubility in water (in words): only slightly soluble
